Experimental data reported in patent US12103924B2, “Mitogen-activated protein kinase kinase (MEK) degradation compounds and methods of use” (Icahn School of Medicine at Mount Sinai, priority 2020, dated 2024).

Experiments:
HT-29 cells = experiment: MTT cell viability assay, HT-29; assay type: cell-based; settings: Homo sapiens, 72 h, MTT assay, 3 d treatment, serial dilutions
MEK1/2 = experiment: Western blot of MEK1/2 protein levels in HT-29 cells; assay type: cell-based; settings: 24 h
Procedure: Compound concentrations are 0.3 μM, 1 μM and 3 μM.
The indicated protein levels were determined by Western blots.
The sample was centrifuged at 12,000 g for 10 min at 4° C. to get supernatant as cell lysate. Protein concentrations were quantified using Pierce rapid gold BCA protein assay kit.

[1] = HT-29 cells, 0.3 μM, 1 μM and 3 μM, western blot normalized with α-tubulin

| SMILES | GI50 (HT-29 cells) | MEK1 and MEK2 protein levels (MEK1/2; [1]) | MEK1 and MEK2 protein levels (MEK1/2; HT-29 cells, 0.1, 0.3, or 1 μM) |
| --- | --- | --- | --- |
| O=C(NOC[C@H](O)CO)c1ccc(F)c(F)c1Nc1ccc(I)cc1F [PD0325901, reference compound] |  |  | not |
| Cc1ncsc1-c1ccc(CNC(=O)[C@@H]2C[C@@H](O)CN2C(=O)[C@@H](NC(=O)CCCCCCCCCCNCCCONC(=O)c2ccc(F)c(F)c2Nc2ccc(I)cc2F)C(C)(C)C)cc1 [CPD-014, (2S,4R)-1-((S)-20-(tert-butyl)-1-(3,4-difluoro-2-((2-fluoro-4-iodophenyl)amino)phenyl)-1,18-dioxo-3-oxa-2,7,19-triazahenicosan-21-oyl)-4-hydroxy-N-(4-(4-methylthiazol-5-yl)benzyl)pyrrolidine-2-carboxamide] | 0.4 ± 0.2 µM | reduced |  |
| O=C1CCC(N2C(=O)c3ccc(NCCOCCOCCOCCNCCCONC(=O)c4ccc(F)c(F)c4Nc4ccc(I)cc4F)cc3C2=O)C(=O)N1 (centres unmarked) [CPD-049, N-((1-((2-(2,6-dioxopiperidin-3-yl)-1,3-dioxoisoindolin-5-yl)amino)-3,6,9-trioxa-12-azapentadecan-15-yl)oxy)-3,4-difluoro-2-((2-fluoro-4-iodophenyl)amino)benzamide] | 1.5 ± 0.5 µM |  |  |
| Cc1ncsc1-c1ccc([C@H](C)NC(=O)[C@@H]2C[C@@H](O)CN2C(=O)[C@@H](NC(=O)CCCCCCCCCCCNCCCONC(=O)c2ccc(F)c(F)c2Nc2ccc(I)cc2F)C(C)(C)C)cc1 [CPD-033, (2S,4R)-1-((S)-21-(tert-butyl)-1-(3,4-difluoro-2-((2-fluoro-4-iodophenyl)amino)phenyl)-1,19-dioxo-3-oxa-2,7,20-triazadocosan-22-oyl)-4-hydroxy-N—((S)-1-(4-(4-methylthiazol-5-yl)phenyl)ethyl)pyrrolidine-2-carboxamide] | 0.099 ± 0.008 µM |  |  |
| O=C1CCC(N2C(=O)c3cccc(NCCCCCCCCNCCCONC(=O)c4ccc(F)c(F)c4Nc4ccc(I)cc4F)c3C2=O)C(=O)N1 (centres unmarked) [CPD-030, N-(3-((8-((2-(2,6-dioxopiperidin-3-yl)-1,3-dioxoisoindolin-4-yl)amino)octyl)amino)propoxy)-3,4-difluoro-2-((2-fluoro-4-iodophenyl)amino)benzamide] | 3.5 ± 0.9 µM |  |  |
| O=C1CCC(N2C(=O)c3ccc(NCCOCCNCCCONC(=O)c4ccc(F)c(F)c4Nc4ccc(I)cc4F)cc3C2=O)C(=O)N1 (centres unmarked) [CPD-047, N-(3-((2-(2-((2-(2,6-dioxopiperidin-3-yl)-1,3-dioxoisoindolin-5-yl)amino)ethoxy)ethyl)amino)propoxy)-3,4-difluoro-2-((2-fluoro-4-iodophenyl)amino)benzamide] | 1.4 ± 0.7 µM |  |  |
| Cc1ncsc1-c1ccc(CNC(=O)[C@@H]2C[C@@H](O)CN2C(=O)[C@@H](NC(=O)CCCNCCCONC(=O)c2ccc(F)c(F)c2Nc2ccc(I)cc2F)C(C)(C)C)cc1 [CPD-008, (2S,4R)-1-((S)-13-(tert-Butyl)-1-(3,4-difluoro-2-((2-fluoro-4-iodophenyl)amino)phenyl)-1,11-dioxo-3-oxa-2,7,12-triazatetradecan-14-oyl)-4-hydroxy-N-(4-(4-methylthiazol-5-yl)benzyl)pyrrolidine-2-carboxamide] | 11 ± 0.9 µM |  |  |

Continued, in another order:

| GI50 (HT-29 cells) | SMILES | MEK1 and MEK2 protein levels (MEK1/2; [1]) | MEK1 and MEK2 protein levels (MEK1/2; HT-29 cells, 0.1, 0.3, or 1 μM) |
| --- | --- | --- | --- |
| 0.5 ± 0.2 µM | O=C1CCC(N2C(=O)c3ccc(NCCCCCCCNCCCONC(=O)c4ccc(F)c(F)c4Nc4ccc(I)cc4F)cc3C2=O)C(=O)N1 (centres unmarked) [CPD-045, N-(3-((7-((2-(2,6-dioxopiperidin-3-yl)-1,3-dioxoisoindolin-5-yl)amino)heptyl)amino)propoxy)-3,4-difluoro-2-((2-fluoro-4-iodophenyl)amino)benzamide] | significantly degraded |  |
| 1.3 ± 0.1 µM | Cc1ncsc1-c1ccc(CNC(=O)[C@@H]2C[C@@H](O)CN2C(=O)[C@@H](NC(=O)COCCOCCOCCNCCCONC(=O)c2ccc(F)c(F)c2Nc2ccc(I)cc2F)C(C)(C)C)cc1 [CPD-015, (2S,4R)-1-((S)-20-(tert-butyl)-1-(3,4-difluoro-2-((2-fluoro-4-iodophenyl)amino)phenyl)-1,18-dioxo-3,10,13,16-tetraoxa-2,7,19-triazahenicosan-21-oyl)-4-hydroxy-N-(4-(4-methylthiazol-5-yl)benzyl)pyrrolidine-2-carboxamide] | reduced |  |
| 0.5 ± 0.06 µM | O=C1CCC(N2C(=O)c3ccc(NCCOCCOCCOCCOCCNCCCONC(=O)c4ccc(F)c(F)c4Nc4ccc(I)cc4F)cc3C2=O)C(=O)N1 (centres unmarked) [CPD-050, N-((1-((2-(2,6-dioxopiperidin-3-yl)-1,3-dioxoisoindolin-5-yl)amino)-3,6,9,12-tetraoxa-15-azaoctadecan-18-yl)oxy)-3,4-difluoro-2-((2-fluoro-4-iodophenyl)amino)benzamide] | significantly degraded |  |
| 0.5 ± 0.2 µM | O=C1CCC(N2C(=O)c3ccc(NCCCNCCCONC(=O)c4ccc(F)c(F)c4Nc4ccc(I)cc4F)cc3C2=O)C(=O)N1 (centres unmarked) [CPD-041, N-(3-((3-((2-(2,6-dioxopiperidin-3-yl)-1,3-dioxoisoindolin-5-yl)amino)propyl)amino)propoxy)-3,4-difluoro-2-((2-fluoro-4-iodophenyl)amino)benzamide] | not |  |
| 0.5 ± 0.1 µM | O=C1CCC(N2C(=O)c3ccc(NCCCCCNCCCONC(=O)c4ccc(F)c(F)c4Nc4ccc(I)cc4F)cc3C2=O)C(=O)N1 (centres unmarked) [CPD-043, N-(3-((5-((2-(2,6-dioxopiperidin-3-yl)-1,3-dioxoisoindolin-5-yl)amino)pentyl)amino)propoxy)-3,4-difluoro-2-((2-fluoro-4-iodophenyl)amino)benzamide] | significantly degraded |  |
| 3.8 ± 1.7 µM | O=C1CCC(N2C(=O)c3cccc(NCCCCCCNCCCONC(=O)c4ccc(F)c(F)c4Nc4ccc(I)cc4F)c3C2=O)C(=O)N1 (centres unmarked) [CPD-028, N-(3-((6-((2-(2,6-dioxopiperidin-3-yl)-1,3-dioxoisoindolin-4-yl)amino)hexyl)amino)propoxy)-3,4-difluoro-2-((2-fluoro-4-iodophenyl)amino)benzamide] |  |  |
| 1.8 ± 0.5 µM | O=C1CCC(N2C(=O)c3cccc(NCCCCCNCCCONC(=O)c4ccc(F)c(F)c4Nc4ccc(I)cc4F)c3C2=O)C(=O)N1 (centres unmarked) [CPD-027, N-(3-((5-((2-(2,6-dioxopiperidin-3-yl)-1,3-dioxoisoindolin-4-yl)amino)pentyl)amino)propoxy)-3,4-difluoro-2-((2-fluoro-4-iodophenyl)amino)benzamide] |  |  |
| 0.8 ± 0.2 µM | O=C1CCC(N2C(=O)c3cccc(NCCOCCOCCOCCNCCCONC(=O)c4ccc(F)c(F)c4Nc4ccc(I)cc4F)c3C2=O)C(=O)N1 (centres unmarked) [CPD-021, N-((1-((2-(2,6-dioxopiperidin-3-yl)-1,3-dioxoisoindolin-4-yl)amino)-3,6,9-trioxa-12-azapentadecan-15-yl)oxy)-3,4-difluoro-2-((2-fluoro-4-iodophenyl)amino)benzamide] |  |  |
| 1 ± 0.4 µM | O=C1CCC(N2C(=O)c3ccc(NCCCCNCCCONC(=O)c4ccc(F)c(F)c4Nc4ccc(I)cc4F)cc3C2=O)C(=O)N1 (centres unmarked) [CPD-042, N-(3-((4-((2-(2,6-dioxopiperidin-3-yl)-1,3-dioxoisoindolin-5-yl)amino)butyl)amino)propoxy)-3,4-difluoro-2-((2-fluoro-4-iodophenyl)amino)benzamide] |  |  |
| 1.1 ± 0.3 µM | O=C1CCC(N2C(=O)c3ccc(NCCOCCOCCNCCCONC(=O)c4ccc(F)c(F)c4Nc4ccc(I)cc4F)cc3C2=O)C(=O)N1 (centres unmarked) [CPD-048, N-(3-((2-(2-(2-((2-(2,6-dioxopiperidin-3-yl)-1,3-dioxoisoindolin-5-yl)amino)ethoxy)ethoxy)ethyl)amino)propoxy)-3,4-difluoro-2-((2-fluoro-4-iodophenyl)amino)benzamide] |  |  |
